From article PMC11148772, “Inhibition of protein translational machinery in triple-negative breast cancer as a promising therapeutic strategy” (Cell Reports Medicine, 2024)

Columns and labels:
[1] = system: TNBC cells (MDA-MB-231, MDA-MB-468, SUM159); assay: Immunoblot assay of cell lysates; type: cell-based, human
Protocol: MDA-MB-231, MDA-MB-468, and SUM159 cells were grown to 60–70% confluency and treated with DMSO and SU056 (1 μM) for 12 and 24 h. After the specific treatment time was over, total cell lysates were prepared in non-denaturing lysis buffer. For protein lysate from tumors: randomly selected frozen sample; three from vehicle and SU056 treated group were homogenized in non-denaturing lysis buffer at 4°C for 5 min. 10 μg of protein lysate per sample was resolved on 8–16% SDS-PAGE. Membranes were probed with specific primary antibodies followed by detection with HRP-conjugated appropriate secondary antibodies, visualized by enhanced chemiluminescence detection system, and imaged using an iBright imaging system (Thermo Fisher, USA).

[2] = system: normal breast epithelial cells MCF12A; assay: MTT cell viability assay; type: cell-based; settings: Homo sapiens, MCF-12A, 48 h
Protocol: (§1) MDA-MB-231 (5000 cells per well), MDA-MB-468 (6000 cells per well), SUM159 (3000 cells per well), 4T1 (2000 cells per well), EMT6 (2000 cells per well), E0771 (3000 cells per well), MCF10A (5000 cells per well) and MCF12A (5000 cells per well) cells were seeded in 96-well culture plates. On the next day, cells were treated with either DMSO or indicated concentrations of SU056 for 48 h 3-(4,5-dimethylthiazol-2-yl)-2,5-diphenyltetrazolium bromide (MTT) (0.5 mg/mL) was dissolved in 1x PBS and 50 μL were added to each well and allowed to form formazan crystals (1–2 h) followed by removal of MTT. Formazan crystals were dissolved in DMSO and plates were scanned at 570nm using a Tecan multimode plate reader.
(§2) Data S1. SU056 induces cell cycle arrest and apoptotic cell death, related to Figure 1 A) The growth inhibitory effect of SU056 was evaluated using the MTT assay (0.5 mg/ml in 1x PBS). Normal breast epithelial cells (MCF10A and MCF12A) were plated in a 96 well plate. On the next day, cells were treated with vehicle (DMSO) alone or 0.005-50 μM of […]
(§3) SU056 in fresh medium. […]
(§4) SU056 treatment led to cell cycle arrest at the G2/M phase and induced cell death in TNBC cells. E) MDA-MB-231 and F) MDA-MB-468 cells were analyzed for cell death using Annexin V-FITC Apoptosis Assay kit. Cell lysates were analyzed for Bax and BCL-2 proteins. b-actin was probed to ensure equal protein loading. […]

[3] = system: normal breast epithelial cells MCF10A; assay: MTT cell viability assay; type: cell-based; settings: Homo sapiens, MCF-10A, 48 h
Protocol: as §1, §2, §3, §4

## O=C1OCC2=C1C(c1cccc(F)c1)c1cc3c(cc1N2CCO)OCO3 (stereo not shown) [SU056, 9-(3-fluorophenyl)-5-(2-hydroxyethyl)-6,9-dihydro-[1,3]dioxolo[4,5-g]furo[3,4-b]quinolin-8(5H)-one]
[1]; 1 μM, 12 and 24 h
  RPLs (RPL36, RPL35, RPL32, RPL23A, RPL15, RPL11, RPL9): decreased
  YB-1 expression: decreased
  c-Myc expression: decreased
  expression of RPSs: lower expression
  levels of translation initiation factors: decreased
  overall levels of mTOR: decreased
  phosphorylation of mTOR (S2448): inhibited
  phosphorylation of p70S6 kinase (T389 and S371) and S6R (S235/S236): decreased
[1]; 12 and 24 h
  phospho-histone H3 (Ser10), mitotic phase marker: arrests TNBC cells in the mitotic phase
[1]; MDA-MB-231 and MDA-MB-468, 1 μM
  integrated stress response activation (PERK, eIF2α, ATF4): did not induce
[1]; MDA-MB-231 and MDA-MB-468, 1 μM, 12 and 24 h
  cell cycle regulatory proteins (p21 and p27): moderate increase
[2]
  IC50: 4.65 ± 2.25 µM
[3]
  IC50: 4.77 ± 1.61 µM
